In patent publication US7008636B2, “2,3,5-substituted biphenyls useful in the treatment of insulin resistance and hyperglycemia” (Wyeth, priority 1998, dated 2006):

Compound | melting point
O=C(O)COc1c(Br)cc2oc(C(=O)c3ccccc3)cc2c1Br [Example 43, (2-Benzoyl-4,6-dibromo-benzofuran-5-yloxy)acetic acid] | 179 to 181 °C
CCCCOc1cc(-c2ccccc2)c(OCC(=O)O)c(-c2ccccc2)c1 [Example 44, (5′-Butoxy-[1,1′;3′,1″]terphenyl-2′-yloxy)acetic acid] | 92 to 94 °C
CCCCCCCCOc1cc(-c2ccccc2)c(OCC(=O)O)c(-c2ccccc2)c1 [Example 45, (5′-Octyloxy-[1,1′;3′,1″]terphenyl-2′-yloxy)acetic acid] | 82 to 84 °C
O=C(O)COc1c(-c2cccc(Cl)c2)cc(C(=O)NCCc2ccccn2)cc1-c1cccc(Cl)c1 [Example 52, [3,3″-Dichloro-5′-(2-pyridin-2-yl-ethylcarbamoyl)-[1,1′;3′,1″]terphenyl-2′-yloxy]acetic acid] | > 94 °C (dec.)
O=C(O)COc1c(-c2cccc(Cl)c2)cc(C(=O)N(CCc2ccccc2)Cc2ccccc2)cc1-c1cccc(Cl)c1 [Example 53, [5′-(Benzyl-phenethyl-carbamoyl)-3,3″-Dichloro-[1,1′;3′,1″]terphenyl-2′-yloxy]acetic acid] | > 67 °C (dec.)
O=C(O)COc1c(-c2cccc(Cl)c2)cc(C(=O)NCCCCc2ccccc2)cc1-c1cccc(Cl)c1 [Example 54, [3,3″-Dichloro-5′-(4-phenyl-butylcarbamoyl)-[1,1′;3′,1″]terphenyl-2′-yloxy]acetic acid] | > 164 °C (dec.)
O=C(O)COc1c(Br)cc(C(=O)N(CCc2ccccc2)Cc2ccccc2)cc1-c1cccc(Cl)c1 [Example 55, [5-(Benzyl-phenethyl-carbamoyl)-3-bromo-3′-chloro-biphenyl-2-yloxy]acetic acid] | > 72 °C (dec.)
O=C(O)COc1c(Br)cc(C(=O)NCCc2ccccn2)cc1-c1cccc(Cl)c1 [Example 56, [3-Bromo-3′-chloro-5-(2-pyridin-2-yl-ethylcarbamoyl)-biphenyl-2-yloxy]acetic acid] | > 102 °C (dec.)
O=C(O)COc1c(-c2cccc(Cl)c2)cc(C(=O)N(CCc2ccccc2)Cc2ccccc2)cc1-c1cccc(C(F)(F)F)c1 [Example 57, [5′-(Benzyl-phenethyl-carbamoyl)-3″-chloro-3-trifluoromethyl-[1,1′;3′,1″]terphenyl-2′-yloxy]acetic acid] | > 75 °C (dec.)
O=C(O)COc1c(-c2cccc(Cl)c2)cc(C(=O)NCCc2ccccn2)cc1-c1cccc(C(F)(F)F)c1 [Example 58, [3″-Chloro-5′-(2-pyridin-2-yl-ethylcarbamoyl)-3-trifluoromethyl-[1,1′;3′,1″]terphenyl-2′-yloxy]acetic acid] | > 92 °C (dec.)
O=C(O)COc1c(-c2cccc(Cl)c2)cc(C(=O)NCCCc2ccccc2)cc1-c1cccc(C(F)(F)F)c1 [Example 59, [3″-Chloro-5′-(3-phenyl-propylcarbamoyl)-3-trifluoromethyl-[1,1′;3′,1″]terphenyl-2′-yloxy]acetic acid] | > 106 °C (dec.)
O=C(O)COc1c(-c2cccc(Cl)c2)cc(C(=O)NCCCC2CCCC2)cc1-c1cccc(C(F)(F)F)c1 [Example 61, [3″-Chloro-5′-(3-cyclopentyl-propylcarbamoyl)-3-trifluoromethyl-[1,1′;3′,1″]-terphenyl-2′-yloxy]acetic acid] | 173 to 175 °C
O=C(O)COc1c(Br)cc(C(=O)NCCCC2CCCC2)cc1-c1cccc(Cl)c1 [Example 62, [3-Bromo-3′-chloro-5-(3-cyclopentyl-propylcarbamoyl)-biphenyl-2-yloxy]acetic acid] | > 135 °C (dec.)
O=C(O)COc1c(-c2cccc(Cl)c2)cc(C(=O)NCCc2ccc(Br)cc2)cc1-c1cccc(C(F)(F)F)c1 [Example 63, {5′-[2-(4-Bromo-phenyl)-ethylcarbamoyl]-3″-chloro-3-trifluoromethyl-[1,1′;3′,1″]-terphenyl-2′-yloxy}acetic acid] | > 102 °C (dec.)
COc1ccc(-c2cc(C(=O)NCCc3ccccn3)cc(-c3cccc(C(F)(F)F)c3)c2OCC(=O)O)cc1 [Example 65, [4″-Methoxy-5′-(2-pyridin-2-yl-ethylcarbamoyl)-3-trifluoromethyl-[1,1′;3′,1″]-terphenyl-2′-yloxy]acetic acid] | > 105 °C (dec.)

The next lines start with the values.

melting point | Compound
> 114 °C (dec.) | COc1ccc(-c2cc(C(=O)NCCCC3CCCC3)cc(-c3cccc(C(F)(F)F)c3)c2OCC(=O)O)cc1 [Example 66, [5′-(3-Cyclopentyl-propylcarbamoyl)-4″-methoxy-3-trifluoromethyl-[1,1′;3′,1″]-terphenyl-2′-yloxy]acetic acid]
> 82 °C (dec.) | COc1ccc(-c2cc(C(=O)N(CCc3ccccc3)Cc3ccccc3)cc(-c3cccc(C(F)(F)F)c3)c2OCC(=O)O)cc1 [Example 67, [5′-(Benzyl-phenethyl-carbamoyl)-4″-methoxy-3-trifluoromethyl-[1,1′;3′,1″]-terphenyl-2′-yloxy]acetic acid]
> 73 °C (dec.) | COc1ccc(-c2cc(C(=O)N(CCc3ccccc3)Cc3ccccc3)cc(-c3ccccc3F)c2OCC(=O)O)cc1 [Example 68, [5′-(Benzyl-phenethyl-carbamoyl)-2-fluoro-4″-methoxy-[1,1′;3′,1″]-terphenyl-2′-yloxy]acetic acid]
> 85 °C (dec.) | O=C(O)COc1c(Br)cc(C(=O)N(CCc2ccccc2)Cc2ccccc2)cc1-c1ccccc1F [Example 69, [5-(Benzylphenethyl-carbamoyl)-3-bromo-2′-fluoro-biphenyl-2-yloxy]acetic acid]
> 102 °C (dec.) | COc1ccc(-c2cc(C(=O)NCCc3ccccn3)cc(-c3ccccc3F)c2OCC(=O)O)cc1 [Example 70, [2-Fluoro-4″-methoxy-5′-(2-pyridin-2-yl-ethylcarbamoyl)-[1,1′;3′,1″]-terphenyl-2′-yloxy]acetic acid]
> 89 °C (dec.) | COc1ccc(-c2cc(C(=O)NCCCc3ccccc3)cc(-c3ccccc3F)c2OCC(=O)O)cc1 [Example 71, [2-Fluoro-4″-methoxy-5′-(3-phenyl-propylcarbamoyl)-[1,1′;3′,1″]-terphenyl-2′-yloxy]acetic acid]
> 154 °C (dec.) | O=C(O)COc1c(Br)cc(C(=O)NCCc2ccccn2)cc1-c1ccccc1F [Example 72, [3-Bromo-2′-fluoro-5-(2-pyridin-2-yl-ethylcarbamoyl)-biphenyl-2-yloxy]acetic acid]
> 90 °C (dec.) | O=C(O)COc1c(Br)cc(C(=O)NCCCc2ccccc2)cc1-c1ccccc1F [Example 73, [3-Bromo-2′-fluoro-5-(3-phenyl-propylcarbamoyl)-biphenyl-2-yloxy]acetic acid]
> 97 °C (dec.) | COc1ccc(-c2cc(C(=O)NCCCC3CCCC3)cc(-c3ccccc3F)c2OCC(=O)O)cc1 [Example 74, [5′-(3-Cyclopentyl-propylcarbamoyl)-2-fluoro-4″-methoxy-[1,1′;3′,1″]-terphenyl-2′-yloxy]acetic acid]
> 127 °C (dec.) | O=C(O)COc1c(Br)cc(C(=O)NCCCC2CCCC2)cc1-c1ccccc1F [Example 75, [3-Bromo-5-(3-cyclopentyl-propylcarbamoyl)-2′-fluoro-biphenyl-2-yloxy]acetic acid]
> 84 °C (dec.) | COc1ccc(-c2cc(C(=O)NCCCCCCCCc3ccccc3)cc(-c3ccccc3F)c2OCC(=O)O)cc1 [Example 76, [2-Fluoro-4″-methoxy-5′-(8-phenyl-octylcarbamoyl)-[1,1′;3′,1″]-terphenyl-2′-yloxy]acetic acid]
> 79 °C (dec.) | O=C(O)COc1c(Br)cc(C(=O)NCCCCCCCCc2ccccc2)cc1-c1ccccc1F [Example 77, [3-Bromo-2′-fluoro-5-(8-phenyl-octylcarbamoyl)-biphenyl-2-yloxy]acetic acid]
> 72 °C (dec.) | COc1ccc(-c2cc(C(=O)NCCCCCCc3ccccc3)cc(-c3ccccc3F)c2OCC(=O)O)cc1 [Example 78, [2-Fluoro-4″-methoxy-5′-(6-phenyl-hexylcarbamoyl)-[1,1′;3′,1″]-terphenyl-2′-yloxy]acetic acid]
> 84 °C (dec.) | O=C(O)COc1c(Br)cc(C(=O)NCCCCCCc2ccccc2)cc1-c1ccccc1F [Example 79, [3-Bromo-2′-fluoro-5-(6-phenyl-hexylcarbamoyl)-biphenyl-2-yloxy]acetic acid]
100 to 101 °C | CCCCCCCCCCCCNC(=O)c1cc(Br)c(OCCn2cnnn2)c(-c2cccc(OC)c2)c1 [Example 138, 5-Bromo-6-(2-tetrazol-1-yl-ethoxy)-3′-methoxy-biphenyl-3-carboxylic acid dodecylamide]
153 to 159 °C | COc1ccc(-c2cc(C(=O)NCCCCCCc3ccccc3)cc(-c3cccc(C(F)(F)F)c3)c2OCC(=O)O)cc1 [Example 157, [4″-Methoxy-5′-(6-phenyl-hexylcarbamoyl)-3-trifluoromethyl-[1,1′;3′,1″]terphenyl-2′-yloxy]acetic acid]
70.5 to 72.5 °C | CCCCCCCCCCCCNC(=O)c1cc(Br)c(OCCn2ccnn2)c(-c2cccc(C(F)(F)F)c2)c1 [Example 181, 5-Bromo-6-(2-[1,2,3]triazol-1-yl-ethoxy)-3′-trifluoromethyl-biphenyl-3-carboxylic acid dodecylamide]
75.6 to 76.2 °C | CCCCCCCCCCCCNC(=O)c1cc(Br)c(OCCn2ncnn2)c(-c2cccc(C(F)(F)F)c2)c1 [Example 182, 5-Bromo-6-(2-tetrazol-2-yl-ethoxy)-3′-trifluoromethyl-biphenyl-3-carboxylic acid dodecylamide]
91.5 to 92.6 °C | CCCCCCCCCCCCNC(=O)c1cc(Br)c(OCCn2cnnn2)c(-c2cccc(C(F)(F)F)c2)c1 [Example 183, 5-Bromo-6-(2-tetrazol-1-yl-ethoxy)-3′-trifluoromethyl-biphenyl-3-carboxylic acid dodecylamide]
122.5 to 125.1 °C | CCCCCCCCCCCCNC(=O)c1cc(Br)c(OCCNC(N)=O)c(-c2cccc(C(F)(F)F)c2)c1 [Example 187, 5-Bromo-3′-trifluoromethyl-6-(2-ureido-ethoxy)-biphenyl-3-carboxylic acid dodecylamide]
